Results published in publication PMC4491657, “Design and Synthesis of Novel N-Arylsulfonyl-3-(2-yl-ethanone)-6-methylindole Derivatives as Inhibitors of HIV-1 Replication” (Pharmaceuticals, 2015).

Columns and labels:
[1] = MTT-based cytotoxicity assay; conditions: human, C8166 cells, concentration that causes 50% reduction in total C8166 cell number, means of two separate experiments, read-out: CC50 (50% cytotoxic concentration)
Description: (§1) Cell line (C8166) and the laboratory-derived virus (HIV-1 IIIB) were obtained from the MRC, AIDS Reagent Project, London, UK. C8166 was maintained in RPMI-1640 supplemented with 10% heat-inactivated new born calf serum (Gibco, USA). The cells used in all experiments were in log-phase growth. The 50% HIV-1 IIIB tissue culture infectious dose (TCID50) in C8166 cells was determined and calculated by the Reed and Muench method. Virus stocks were stored in small aliquots at −70 °C [11].
Cellular toxicity of compounds 4a–f and 6 on C8166 cells was assessed by the MTT method as described previously. Briefly, cells were seeded on 96-well microtiter plate in the absence or presence of various concentrations of compounds in triplicate and incubated at 37 °C in a humid atmosphere of 5% CO2 for 3 days. The supernatants were discarded and MTT reagent (5 mg/mL in PBS) was added to each wells, then incubated for 4 h, 100 μL of 50% DMF-20% SDS was added. After the formazan was dissolved completely, the plates were read on a Bio-TekElx800 ELISA reader at 595/630 nm. The cytotoxic concentration that caused the reduction of viable C8166 cells by 50% (CC50) was determined from dose-response curve.

HIV-1 IIIB = test: Syncytia assay (anti-HIV-1 activity in acutely infected C8166 cells); type: cell-based; conditions: Human immunodeficiency virus 1, 72 h; concentration that reduces syncytia formation by 50%; C8166 cells infected with HIV-1 IIIB, M.O.I 0.06, 3 days; means of two separate experiments; read-out: EC50 (50% effective concentration)
Description: as §1
In the presence of 100 μL of various concentrations of compounds, C8166 cells (4 × 10^5/mL) were infected with virus HIV-1IIIB at a multiplicity of infection (M.O.I) of 0.06. The final volume per well was 200 μL. Control assays were performed without the testing compounds in HIV-1IIIB infected and uninfected cultures. After 3 days of culture, the cytopathic effect (CPE) was measured by counting the number of syncytia. Percentage inhibition of syncytia formation was calculated and 50% effective concentration (EC50) was calculated. AZT (Sigma, USA) was used as a positive control. Therapeutic index (TI) = CC50/EC50 [13].

| EC50 (HIV-1 IIIB) | melting point | SMILES | CC50 at 3 days [1] |
| --- | --- | --- | --- |
| 106 µM | 124 to 126 °C | Cc1ccc2c(C(=O)CN3CCCC3)cn(S(=O)(=O)c3ccccc3)c2c1 [Compound 4c, N-Phenylsulfonyl-3-[2-pyrrolidinoethanone]-6-methylindole] | 226 µM |
| 9.42 µM |  | CCc1ccc(S(=O)(=O)n2cc(C(=O)CN3CCOCC3)c3ccc(C)cc32)cc1 [Compound 4f, N-(p-Ethyl)phenylsulfonyl-3-[2-morpholinoethanone]-6-methylindole] | > 469 µM |
| 32.8 µM | 132 to 134 °C | Cc1ccc2c(C(=O)CN3CCCCC3)cn(S(=O)(=O)c3ccccc3)c2c1 [Compound 4a, N-Phenylsulfonyl-3-[2-piperidinylethanone]-6-methylindole] | > 504 µM |

Further lines, the compound ahead of its results:

| SMILES | EC50 (HIV-1 IIIB) | melting point | CC50 at 3 days [1] |
| --- | --- | --- | --- |
| Cc1ccc2c(C(=O)CN3CCOCC3)cn(S(=O)(=O)c3ccccc3)c2c1 [Compound 4b, N-Phenylsulfonyl-3-[2-morpholinoethanone]-6-methylindole] | 56.6 µM | 174 to 176 °C | > 502 µM |
| CCc1ccc(S(=O)(=O)n2cc(C(=O)CSc3nnc(-c4ccccc4)o3)c3ccc(C)cc32)cc1 [Compound 6, N-(p-Ethyl)phenylsulfonyl-3-[2-(5-phenyl-1,3,4-oxadiazole-2-yl-thio)ethanone]-6-methylindole] | 4.62 µM | 122 to 124 °C | 309 µM |
| Cc1cn([C@H]2C[C@H](N=[N+]=[N-])[C@@H](CO)O2)c(=O)[nH]c1=O [AZT, 3'-azido-3'-deoxythymidine, reference compound] | 0.0121 µM |  | 4260 µM |
| Cc1ccc2c(C(=O)CN(C(C)C)C(C)C)cn(S(=O)(=O)c3ccccc3)c2c1 [Compound 4d, N-Phenylsulfonyl-3-[2-diisopropylaminoethanone]-6-methylindole] | 17.9 µM |  | 220 µM |
| CCCCNCC(=O)c1cn(S(=O)(=O)c2ccccc2)c2cc(C)ccc12 [Compound 4e, N-Phenylsulfonyl-3-[2-butylaminoethanone]-6-methylindole] | 30 µM |  | 43.8 µM |
